How the values were obtained:
human CYP11B1 = target: T1, human CYP11B1 (Homo sapiens, UniProt P15538); experiment: Inhibition of hCYP11B1 in transfected V79 cells; type: cell-based; details: hamster V79 cells expressing human CYP11B1; substrate 11-deoxycortisol 200 nM
T1 construct: expressed in transfected cells
T1 sequence (P15538 25-503): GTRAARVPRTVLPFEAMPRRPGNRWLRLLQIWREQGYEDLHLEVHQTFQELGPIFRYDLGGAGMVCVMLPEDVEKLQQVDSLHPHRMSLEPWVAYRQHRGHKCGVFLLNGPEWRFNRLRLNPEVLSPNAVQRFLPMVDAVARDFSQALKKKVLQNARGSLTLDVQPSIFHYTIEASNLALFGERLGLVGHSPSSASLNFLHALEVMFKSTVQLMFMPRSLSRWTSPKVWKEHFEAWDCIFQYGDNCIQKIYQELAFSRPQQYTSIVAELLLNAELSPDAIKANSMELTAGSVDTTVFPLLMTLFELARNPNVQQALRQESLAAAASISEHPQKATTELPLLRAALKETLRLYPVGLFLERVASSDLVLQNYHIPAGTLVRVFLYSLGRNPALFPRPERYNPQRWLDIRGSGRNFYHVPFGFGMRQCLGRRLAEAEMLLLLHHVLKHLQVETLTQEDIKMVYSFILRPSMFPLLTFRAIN
Summary of the method: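 V79 hamster cells stably expressing human CYP11B1 and rat NADPH-P450 reductase were preincubated with compounds for 2 h. 11-Deoxycortisol (200 nM) was then added as substrate for 30 min before ethyl acetate quench. Substrate and product were quantified by LC-MS/MS or HPLC at 260 nm, and IC50 was derived from percent inhibition.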

human CYP11B2 = target: T2, human CYP11B2 (Homo sapiens, UniProt P19099); experiment: Inhibition of hCYP11B2 in transfected V79 cells; type: cell-based; details: hamster V79 cells expressing human CYP11B2; substrate 11-deoxycorticosterone 200 nM
T2 construct: expressed in transfected cells
T2 sequence (P19099 25-503): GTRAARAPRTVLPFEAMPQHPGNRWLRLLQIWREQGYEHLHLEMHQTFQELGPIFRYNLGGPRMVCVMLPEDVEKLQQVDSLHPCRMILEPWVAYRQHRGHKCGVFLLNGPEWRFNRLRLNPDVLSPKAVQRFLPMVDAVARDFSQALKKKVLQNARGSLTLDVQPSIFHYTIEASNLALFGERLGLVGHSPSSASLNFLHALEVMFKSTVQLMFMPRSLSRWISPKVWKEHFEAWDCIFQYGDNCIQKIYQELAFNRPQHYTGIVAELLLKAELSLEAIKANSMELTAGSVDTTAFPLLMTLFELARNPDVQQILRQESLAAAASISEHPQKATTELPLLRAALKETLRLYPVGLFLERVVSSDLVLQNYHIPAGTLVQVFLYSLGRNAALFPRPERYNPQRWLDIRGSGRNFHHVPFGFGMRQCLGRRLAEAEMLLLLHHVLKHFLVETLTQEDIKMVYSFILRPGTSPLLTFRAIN
Summary of the method: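 Hamster V79 cells stably co-expressing human CYP11B2 and rat NADPH-P450 reductase were pre-incubated with compounds for 2 hours, then given 200 nM 11-deoxycorticosterone for 30 minutes before ethyl acetate quench. Substrate and product were quantified by LC-MS/MS or HPLC at 260 nm, and IC50 was derived from percent inhibition.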

Compound | IC50 (human CYP11B1) [nM] | IC50 (human CYP11B2) [nM]
N#Cc1ccc(S(=O)(=O)N2CCSc3c(-c4cc5cc(Cl)ccc5o4)cncc32)cc1 [S41, 4-((8-(5-Chlorobenzofuran-2-yl)-2,3-dihydro-4H-pyrido[4,3-b][1,4]thiazin-4-yl)sulfonyl) benzonitrile] | 99 | 0.4
N#Cc1ccc(-c2cncc3c2OCCN3C(=O)c2ccco2)cc1 [O31, 4-(4-(Furan-2-carbonyl)-3,4-dihydro-2H-pyrido[4,3-b][1,4]oxazin-8-yl)benzonitrile] | 187 | 2.8
N#Cc1ccc(-c2cncc3c2OCCN3S(=O)(=O)C2CN(S(=O)(=O)c3cccc(C#N)c3)C2)cc1 [O115, 3-((3-((8-(4-Cyanophenyl)-2,3-dihydro-4H-pyrido[4,3-b][1,4]oxazin-4-yl)sulfonyl)azetidin-1-yl)sulfonyl)benzonitrile] | 104 | 3.2
COc1cccc(C(=O)N2CCSc3c(-c4ccc(C#N)cc4)cncc32)c1 [S96, 4-(4-(3-Methoxybenzoyl)-3,4-dihydro-2H-pyrido[4,3-b][1,4]thiazin-8-yl)benzonitrile] | 643 | 11
N#Cc1ccc(-c2cncc3c2CCN3C(=O)c2ccccc2)cc1 [C41, 4-(1-Benzoyl-2,3-dihydro-1H-pyrrolo[2,3-c]pyridin-4-yl)benzonitrile] | 353 | 40
N#Cc1ccc(-c2cncc3c2ccn3S(=O)(=O)c2ccc([N+](=O)[O-])cc2)cc1 [E1, 4-(1-((4-Nitrophenyl)sulfonyl)-1H-pyrrolo[2,3-c]pyridin-4-yl)benzonitrile] | 0.5 | 0.5
N#Cc1ccc(-c2cncc3c2ccn3S(=O)(=O)c2ccc(C#N)cc2)cc1 [E14, 4-((4-(4-Cyanophenyl)-1H-pyrrolo[2,3-c]pyridin-1-yl)sulfonyl)benzonitrile] | 0.5 | 0.08
N#Cc1ccc(-c2cncc3c2SCCN3S(=O)(=O)C2CN(S(=O)(=O)c3ccc(C#N)cc3)C2)cc1 [S76, 4-((3-((8-(4-Cyanophenyl)-2,3-dihydro-4H-pyrido[4,3-b][1,4]thiazin-4-yl)sulfonyl)azetidin-1-yl)sulfonyl)benzonitrile] | 24 | 0.8
Clc1ccc2oc(-c3cncc4c3OCCN4)cc2c1 [O108, 8-(5-Chlorobenzofuran-2-yl)-3,4-dihydro-2H-pyrido[4,3-b][1,4]oxazine] | 359 | 7.9
Cc1ccc(S(=O)(=O)n2ccc3c(-c4ccc(C#N)cc4)cncc32)cc1 [E2, 4-(1-Tosyl-1H-pyrrolo[2,3-c]pyridin-4-yl)benzonitrile] | 0.4 | 0.5
O=C(c1ccccc1F)N1CCc2c(-c3ccc4nccn4c3)cncc21 [C57, (2-Fluorophenyl)(4-(imidazo[1,2-a]pyridin-6-yl)-2,3-dihydro-1H-pyrrolo[2,3-c]pyridin-1-yl)methanone] | 876 | 27
N#Cc1ccc(-c2cncc3c2OCCN3C(=O)C2CN(S(=O)(=O)c3cccc(C#N)c3)C2)cc1 [O68, 3-((3-(8-(4-Cyanophenyl)-3,4-dihydro-2H-pyrido[4,3-b][1,4]oxazine-4-carbonyl)azetidin-1-yl)sulfonyl)benzonitrile] | 52 | 0.7
O=C(C1CN(Cc2cccc(F)c2)C1)N1CCOc2c(N3CCn4ccnc4C3)cncc21 [O137, (8-(5,6-Dihydroimidazo[1,2-a]pyrazin-7 (8H)-yl)-2,3-dihydro-4H-pyrido[4,3-b][1,4]oxazin-4-yl)(1-(3-fluorobenzyl)azetidin-3-yl)methanone] | 3960 | 57
N#Cc1ccc(-c2cncc3c2OCCN3C(=O)c2cccnc2)cc1 [O30, 4-(4-Nicotinoyl-3,4-dihydro-2H-pyrido[4,3-b][1,4]oxazin-8-yl)benzonitrile] | 4690 | 110
COc1cccc(C(=O)N2CCc3c(-c4ccc(C#N)cc4)cncc32)c1 [C26, 4-(1-(3-Methoxybenzoyl)-2,3-dihydro-1H-pyrrolo[2,3-c]pyridin-4-yl)benzonitrile] | 356 | 2.3
O=S(=O)(C1CC2(COC2)C1)N1CCSc2c(-c3cc4cc(Cl)ccc4o3)cncc21 [S66, 4-((2-Oxaspiro[3.3]heptan-6-yl)sulfonyl)-8-(5-chlorobenzofuran-2-yl)-3,4-dihydro-2H-pyrido[4,3-b][1,4]thiazine] | 587 | 3.8
N#Cc1ccc(-c2cncc3c2SCCN3S(=O)(=O)C2CN(C(=O)c3ccc(F)cc3)C2)cc1 [S68, 4-(4-((1-(4-Fluorobenzoyl)azetidin-3-yl)sulfonyl)-3,4-dihydro-2H-pyrido[4,3-b][1,4]thiazin-8-yl)benzonitrile] | 22 | 0.8
COc1ccc(S(=O)(=O)n2ccc3c(-c4ccc(C#N)cc4)cncc32)cc1 [E9, 4-(1-((4-Methoxyphenyl)sulfonyl)-1H-pyrrolo[2,3-c]pyridin-4-yl)benzonitrile] | 0.3 | 0.1
N#Cc1ccc(-c2cncc3c2CCN3C(=O)c2ccc(C(F)(F)F)cc2)cc1 [C22, 4-(1-(4-(Trifluoromethyl)benzoyl)-2,3-dihydro-1H-pyrrolo[2,3-c]pyridin-4-yl)benzonitrile] | 112 | 2
Cc1cccc(S(=O)(=O)n2ccc3c(-c4ccc(C#N)cc4)cncc32)c1 [E4, 4-(1-(m-Tolylsulfonyl)-1H-pyrrolo[2,3-c]pyridin-4-yl)benzonitrile] | 0.3 | 0.4
N#Cc1ccc2oc(-c3cncc4c3OCCN4C(=O)C3CN(Cc4cccc(F)c4)C3)cc2c1 [O96, 2-(4-(1-(3-Fluorobenzyl)azetidine-3-carbonyl)-3,4-dihydro-2H-pyrido[4,3-b][1,4]oxazin-8-yl)benzofuran-5-carbonitrile] | 1340 | 5.2
N#Cc1ccc(-c2cncc3c2OCCN3C(=O)CCc2cccc(C(F)(F)F)c2)cc1 [O54] | 119 | 6.9
N#Cc1ccc(-c2cncc3c2OCCN3S(=O)(=O)c2ccc(Cl)cc2)cc1 [O6, 4-(4-((4-Chlorophenyl)sulfonyl)-3,4-dihydro-2H-pyrido[4,3-b][1,4]oxazin-8-yl)benzonitrile] | 0.66 | 0.41
N#Cc1ccc(-c2cncc3c2CCN3C(=O)c2ccccc2C(F)(F)F)cc1 [C32, 4-(1-(2-(Trifluoromethyl)benzoyl)-2,3-dihydro-1H-pyrrolo[2,3-c]pyridin-4-yl)benzonitrile] | 233 | 18
N#Cc1ccc(-c2cncc3c2OCCN3S(=O)(=O)C2CN(c3ccc(F)cc3)C2)cc1 [O127, 4-(4-((1-(4-Fluorophenyl)azetidin-3-yl)sulfonyl)-3,4-dihydro-2H-pyrido[4,3-b][1,4]oxazin-8-yl)benzonitrile] | 197 | 2.3
Cn1ncc2ccc(-c3cncc4c3ccn4C(=O)c3ccc(F)cc3)cc21 [E35, (4-Fluorophenyl)(4-(1-methyl-1H-indazol-6-yl)-1H-pyrrolo[2,3-c]pyridin-1-yl)methanone] | 857 | 17
N#CN1CCN(c2cncc3c2OCCN3C(=O)C2CN(Cc3cccc(F)c3)C2)C(=O)C1 [O99, 4-(4-(1-(3-Fluorobenzyl)azetidine-3-carbonyl)-3,4-dihydro-2H-pyrido[4,3-b][1,4]oxazin-8-yl)-3-oxopiperazine-1-carbonitrile] | 652 | 39
N#Cc1ccc(-c2cncc3c2OCCN3S(=O)(=O)C2CC(c3ccccc3)=NO2)cc1 (stereo not drawn) [O102, 4-(4-((3-Phenyl-4,5-dihydroisoxazol-5-yl)sulfonyl)-3,4-dihydro-2H-pyrido[4,3-b][1,4]oxazin-8-yl)benzonitrile] | 62 | 0.3
N#Cc1ccc(-c2cncc3c2OCCN3C(=O)c2cccc([N+](=O)[O-])c2)cc1 [O27, 4-(4-(3-Nitrobenzoyl)-3,4-dihydro-2H-pyrido[4,3-b][1,4]oxazin-8-yl)benzonitrile] | 1200 | 23.6
N#Cc1ccc(-c2cncc3c2SCCN3C(=O)c2ccc(F)cc2)cc1 [S5, 4-(4-(4-Fluorobenzoyl)-3,4-dihydro-2H-pyrido[4,3-b][1,4]thiazin-8-yl)benzonitrile] | 2980 | 21
